test system: MCH receptors; assay: MCH receptor activity class (method not given); conditions: class by percent of control at 10^-7 M or IC50

`CN(C)c1cc(N[C@H]2CC[C@@H](NC(=O)c3csc([N+](=O)[O-])c3)CC2)nc2ccccc12` [compound 767, N-(cis-4-{[4-(dimethylamino)quinolin-2-yl]amino}cyclohexyl)-5-nitrothiophene-3-carboxamide] was tested. Which class did it give?
The class was 1 (Class 1: The value of percent of control at 10^−7 M was less than 40% or the value of IC50 was less than 50 nM.).

`CN(C)c1cc(N[C@H]2CC[C@@H](NC(=O)c3cc([N+](=O)[O-])cn3C)CC2)nc2ccccc12` [compound 768, N-(cis-4-{[4-(dimethylamino)quinolin-2-yl]amino}cyclohexyl)-1-methyl-4-nitro-1H-pyrrole-2-carboxamide] was tested. Which class did it give?
Its class is 1 (Class 1: The value of percent of control at 10^−7 M was less than 40% or the value of IC50 was less than 50 nM.).

With `CN(C)c1cc(N[C@H]2CC[C@@H](NC(=O)c3cn(S(=O)(=O)c4ccccc4)c4ccccc34)CC2)nc2ccccc12` [compound 769] as the compound, how does the class read?
Its class is 3 (Class 3 The value of percent of control at 10^−7 M was more than 60% or the value of IC50 was more than 200 nM.).

For `CN(C)c1cc(N[C@H]2CC[C@@H](NC(=O)c3ccc([N+](=O)[O-])cc3)CC2)nc2ccccc12` [compound 770, N-(cis-4-{[4-(dimethylamino)quinolin-2-yl]amino}cyclohexyl)-4-nitrobenzamide], which class is on record?
Its class is 1 (Class 1: The value of percent of control at 10^−7 M was less than 40% or the value of IC50 was less than 50 nM.).

`COc1cc([N+](=O)[O-])ccc1C(=O)N[C@H]1CC[C@@H](Nc2cc(N(C)C)c3ccccc3n2)CC1` [compound 771, N-(cis-4-{[4-(dimethylamino)quinolin-2-yl]amino}cyclohexyl)-2-methoxy-4-nitrobenzamide] was tested. Which class did it give?
The class was 2 (Class 2: The value of percent of control at 10^−7 M was from 40% to 60% or the value of IC′50 was from 50 nM to 200 nM.).

`CN(C)c1cc(N[C@H]2CC[C@@H](NC(=O)c3ccc(C(F)(F)F)c(F)c3)CC2)nc2ccccc12` [compound 772, N-(cis-4-{[4-(dimethylamino)quinolin-2-yl]amino}cyclohexyl)-3-fluoro-4-(trifluoromethyl)benzamide] was tested. Which class did it give?
The class was 1 (Class 1: The value of percent of control at 10^−7 M was less than 40% or the value of IC50 was less than 50 nM.).

How did the class turn out when `CN(C)c1cc(N[C@H]2CC[C@@H](NC(=O)c3ccc([N+](=O)[O-])cc3F)CC2)nc2ccccc12` [compound 773] was run?
Its class is 3 (Class 3 The value of percent of control at 10^−7 M was more than 60% or the value of IC50 was more than 200 nM.).

Which class does the source give for `Cc1cc(C(=O)N[C@H]2CC[C@@H](Nc3cc(N(C)C)c4ccccc4n3)CC2)cc(C)c1[N+](=O)[O-]` [compound 774, N-(cis-4-{[4-(dimethylamino)quinolin-2-yl]amino}cyclohexyl)-3,5-dimethyl-4-nitrobenzamide] here?
Its class is 2 (Class 2: The value of percent of control at 10^−7 M was from 40% to 60% or the value of IC′50 was from 50 nM to 200 nM.).

`Cc1cc(C)c(C(=O)C(=O)N[C@H]2CC[C@@H](Nc3cc(N(C)C)c4ccccc4n3)CC2)c(C)c1` [compound 775, N-(cis-4-{[4-(dimethylamino)quinolin-2-yl]amino}cyclohexyl)-2-mesityl-2-oxoacetamide] was tested. Which class did it give?
Its class is 2 (Class 2: The value of percent of control at 10^−7 M was from 40% to 60% or the value of IC′50 was from 50 nM to 200 nM.).

`CN(C)c1cc(N[C@H]2CC[C@@H](NC(=O)c3cnc4ccccc4c3)CC2)nc2ccccc12` [compound 776] was tested. Which class did it give?
Its class is 3 (Class 3 The value of percent of control at 10^−7 M was more than 60% or the value of IC50 was more than 200 nM.).

For `CN(C)c1cc(N[C@H]2CC[C@@H](NC(=O)c3ccc4ncsc4c3)CC2)nc2ccccc12` [compound 779], which class is on record?
The class was 3 (Class 3 The value of percent of control at 10^−7 M was more than 60% or the value of IC50 was more than 200 nM.).

Which class does the source give for `CN(C)c1cc(N[C@H]2CC[C@@H](NC(=O)c3cc(Cl)ccc3O)CC2)nc2ccccc12` [compound 780, 5-chloro-N-(cis-4-{[4-(dimethylamino)quinolin-2-yl]amino}cyclohexyl)-2-hydroxybenzamide] here?
The class was 2 (Class 2: The value of percent of control at 10^−7 M was from 40% to 60% or the value of IC′50 was from 50 nM to 200 nM.).

`CSc1ccc(Cl)c(C(=O)N[C@H]2CC[C@@H](Nc3cc(N(C)C)c4ccccc4n3)CC2)c1` [compound 781] was tested. Which class did it give?
Its class is 3 (Class 3 The value of percent of control at 10^−7 M was more than 60% or the value of IC50 was more than 200 nM.).

For `COc1cccc2cc(C(=O)N[C@H]3CC[C@@H](Nc4cc(N(C)C)c5ccccc5n4)CC3)oc12` [compound 782], which class is on record?
Its class is 3 (Class 3 The value of percent of control at 10^−7 M was more than 60% or the value of IC50 was more than 200 nM.).

For `Cc1cccc(C(=O)N[C@H]2CC[C@@H](Nc3cc(N(C)C)c4ccccc4n3)CC2)c1N` [compound 783], which class is on record?
The class was 3 (Class 3 The value of percent of control at 10^−7 M was more than 60% or the value of IC50 was more than 200 nM.).

How did the class turn out when `COc1cc(C(=O)N[C@H]2CC[C@@H](Nc3cc(N(C)C)c4ccccc4n3)CC2)cc(OC)c1O` [compound 784] was run?
The class was 3 (Class 3 The value of percent of control at 10^−7 M was more than 60% or the value of IC50 was more than 200 nM.).

With `CN(C)c1cc(N[C@H]2CC[C@@H](NC(=O)c3ccnc4ccccc34)CC2)nc2ccccc12` [compound 785] as the compound, how does the class read?
The class was 3 (Class 3 The value of percent of control at 10^−7 M was more than 60% or the value of IC50 was more than 200 nM.).

With `C=CCSc1ncccc1C(=O)N[C@H]1CC[C@@H](Nc2cc(N(C)C)c3ccccc3n2)CC1` [compound 786] as the compound, how does the class read?
Its class is 3 (Class 3 The value of percent of control at 10^−7 M was more than 60% or the value of IC50 was more than 200 nM.).

For `CN(C)c1cc(N[C@H]2CC[C@@H](NC(=O)c3cc(C(C)(C)C)c(O)c(C(C)(C)C)c3)CC2)nc2ccccc12` [compound 787], which class is on record?
Its class is 3 (Class 3 The value of percent of control at 10^−7 M was more than 60% or the value of IC50 was more than 200 nM.).

Which class does the source give for `CN(C)c1cc(N[C@H]2CC[C@@H](CNC(=O)c3ccc(Br)s3)CC2)nc2ccccc12` [compound 788] here?
The class was 3 (Class 3 The value of percent of control at 10^−7 M was more than 60% or the value of IC50 was more than 200 nM.).

`CN(C)c1cc(N[C@H]2CC[C@@H](CNC(=O)Cc3c(Cl)ccc(Cl)c3Cl)CC2)nc2ccccc12` [compound 789, N-[(cis-4-{[4-(dimethylamino)quinolin-2-yl]amino}cyclohexyl)methyl]-2-(2,3,6-trichlorophenyl)acetamide] was tested. Which class did it give?
Its class is 1 (Class 1: The value of percent of control at 10^−7 M was less than 40% or the value of IC50 was less than 50 nM.).

For `CN(C)c1cc(N[C@H]2CC[C@@H](CNC(=O)Cc3ccc(F)cc3Cl)CC2)nc2ccccc12` [compound 790], which class is on record?
The class was 3 (Class 3 The value of percent of control at 10^−7 M was more than 60% or the value of IC50 was more than 200 nM.).

Which class does the source give for `CN(C)c1cc(N[C@H]2CC[C@@H](CNC(=O)c3ccc(-c4ccc(Cl)cc4[N+](=O)[O-])o3)CC2)nc2ccccc12` [compound 791] here?
Its class is 3 (Class 3 The value of percent of control at 10^−7 M was more than 60% or the value of IC50 was more than 200 nM.).

With `CN(C)c1cc(N[C@H]2CC[C@@H](CNC(=O)c3ccc(Cl)s3)CC2)nc2ccccc12` [compound 792] as the compound, how does the class read?
Its class is 3 (Class 3 The value of percent of control at 10^−7 M was more than 60% or the value of IC50 was more than 200 nM.).

`CN(C)c1cc(N[C@H]2CC[C@@H](CNC(=O)CCc3ccccc3O)CC2)nc2ccccc12` [compound 794] was tested. Which class did it give?
Its class is 3 (Class 3 The value of percent of control at 10^−7 M was more than 60% or the value of IC50 was more than 200 nM.).

Which class does the source give for `CN(C)c1cc(N[C@H]2CC[C@@H](CNC(=O)c3ccc(I)o3)CC2)nc2ccccc12` [compound 795, N-[(cis-4-{[4-(dimethylamino)quinolin-2-yl]amino}cyclohexyl)methyl]-5-iodo-2-furamide] here?
Its class is 3 (Class 3 The value of percent of control at 10^−7 M was more than 60% or the value of IC50 was more than 200 nM.).

For `CN(C)c1cc(N[C@H]2CC[C@@H](CNC(=O)Cc3ccccc3I)CC2)nc2ccccc12` [compound 796], which class is on record?
Its class is 3 (Class 3 The value of percent of control at 10^−7 M was more than 60% or the value of IC50 was more than 200 nM.).

For `CN(C)c1cc(N[C@H]2CC[C@@H](CNC(=O)/C=C/c3cccc([N+](=O)[O-])c3)CC2)nc2ccccc12` [compound 797], which class is on record?
The class was 2 (Class 2: The value of percent of control at 10^−7 M was from 40% to 60% or the value of IC′50 was from 50 nM to 200 nM.).

With `CN(C)c1cc(N[C@H]2CC[C@@H](CNC(=O)c3ccccc3Cc3ccccc3)CC2)nc2ccccc12` [compound 799] as the compound, how does the class read?
Its class is 3 (Class 3 The value of percent of control at 10^−7 M was more than 60% or the value of IC50 was more than 200 nM.).

Which class does the source give for `CN(C)c1cc(N[C@H]2CC[C@@H](CNC(=O)C(c3ccc(Cl)cc3)c3ccc(Cl)cc3)CC2)nc2ccccc12` [compound 800, 2,2-bis(4-chlorophenyl)-N-[(cis-4-{[4-(dimethylamino)quinolin-2-yl]amino}cyclohexyl)methyl]acetamide] here?
Its class is 3 (Class 3 The value of percent of control at 10^−7 M was more than 60% or the value of IC50 was more than 200 nM.).

Which class does the source give for `Cc1ccc(-c2ccc(C(=O)NC[C@H]3CC[C@@H](Nc4cc(N(C)C)c5ccccc5n4)CC3)o2)c([N+](=O)[O-])c1` [compound 801] here?
Its class is 3 (Class 3 The value of percent of control at 10^−7 M was more than 60% or the value of IC50 was more than 200 nM.).

How did the class turn out when `CN(C)c1cc(N[C@H]2CC[C@@H](CNC(=O)c3ccc([N+](=O)[O-])s3)CC2)nc2ccccc12` [compound 802, N-[(cis-4-{[4-(dimethylamino)quinolin-2-yl]amino}cyclohexyl)methyl]-5-nitrothiophene-2-carboxamide] was run?
Its class is 3 (Class 3 The value of percent of control at 10^−7 M was more than 60% or the value of IC50 was more than 200 nM.).

For `Cc1cc(C(=O)NC[C@H]2CC[C@@H](Nc3cc(N(C)C)c4ccccc4n3)CC2)ccc1[N+](=O)[O-]` [compound 803, N-[(cis-4-{[4-(dimethylamino)quinolin-2-yl]amino}cyclohexyl)methyl]-3-methyl-4-nitrobenzamide], which class is on record?
The class was 3 (Class 3 The value of percent of control at 10^−7 M was more than 60% or the value of IC50 was more than 200 nM.).

How did the class turn out when `COc1cc(C(=O)NC[C@H]2CC[C@@H](Nc3cc(N(C)C)c4ccccc4n3)CC2)ccc1[N+](=O)[O-]` [compound 804, N-[(cis-4-{[4-(dimethylamino)quinolin-2-yl]amino}cyclohexyl)methyl]-3-methoxy-4-nitrobenzamide] was run?
The class was 3 (Class 3 The value of percent of control at 10^−7 M was more than 60% or the value of IC50 was more than 200 nM.).

Reference: patent US20050197350A1, “Novel quinoline, tetrahydroquinazoline, and pyrimidine derivatives and methods of treatment related to the use thereof” (TAISHO PHARMACEUTICAL CO., LTD., priority 2003, published 2005)
